Values of other authors, collected in PubChem BioAssay AID1259409 (Chemical Carcinogenesis Research Information System (CCRIS), 2018).

Tested on: rodent chemically induced tumor inhibition, incidence and multiplicity
Assay: CCRIS tumor inhibitor studies
Details: Carcinogen: 4-(METHYLNITROSAMINO)-1-(3-PYRIDYL)-1-BUTANONE, 64091-91-4, Dose [Inhibitor]: 0, Promoter: NONE USED

S=C=NCCc1ccccc1
tumour outcome (control, treated, inhibition, significance) (1 UMOL ONCE 2 HR PRIOR TO CARCINOGEN DOSE (STUDY DURATION: 16 WK), Route [Inhibitor]: GAVAGE, Species: MOUSE, Strain/Sex: STRAIN-A/FEMALE, Target Tissue: Type of Lesion: LUNG: ADENOMA, Dose [Carcinogen]: 10 UMOL IN 0.1 ML SALINE ONCE): 100%, 100%, 0%, not significant
tumour outcome (control, treated, inhibition, significance) (1 UMOL/G DIET FOR 15 WK BEGINNING 1 WK POST CARCINOGEN DOSE (STUDY DURATION: 16 WK), Route [Inhibitor]: ORAL, Species: MOUSE, Strain/Sex: STRAIN-A/FEMALE, Target Tissue: Type of Lesion: LUNG: ADENOMA, Dose [Carcinogen]: 10 UMOL ONCE): 100%, 100%, 0%, not significant
tumour outcome (control, treated, inhibition, significance) (3 UMOL/G DIET FOR 15 WK BEGINNING 1 WK POST CARCINOGEN DOSE (STUDY DURATION: 16 WK), Route [Inhibitor]: ORAL, Species: MOUSE, Strain/Sex: STRAIN-A/FEMALE, Target Tissue: Type of Lesion: LUNG: ADENOMA, Dose [Carcinogen]: 10 UMOL ONCE): 100%, 100%, 0%, not significant
tumour outcome (control, treated, inhibition, significance) (3 UMOL/G DIET FOR 21 WK BEGINNING 1 WK PRIOR TO FIRST CARCINOGEN DOSE (STUDY DURATION: 104 WK), Route [Inhibitor]: ORAL, Species: RAT, Strain/Sex: F344/MALE, Target Tissue: Type of Lesion: LIVER: ADENOMA, Dose [Carcinogen]: 1.76 MG/KG 3/WK FOR 20 WK): 12/40 (30%), 9/40 (23%), 23%, not calculated
tumour outcome (control, treated, inhibition, significance) (3 UMOL/G DIET FOR 21 WK BEGINNING 1 WK PRIOR TO FIRST CARCINOGEN DOSE (STUDY DURATION: 104 WK), Route [Inhibitor]: ORAL, Species: RAT, Strain/Sex: F344/MALE, Target Tissue: Type of Lesion: LIVER: CARCINOMA, Dose [Carcinogen]: 1.76 MG/KG 3/WK FOR 20 WK): 3/40 (8%), 5/40 (13%), -63%, not calculated
tumour outcome (control, treated, inhibition, significance) (3 UMOL/G DIET FOR 21 WK BEGINNING 1 WK PRIOR TO FIRST CARCINOGEN DOSE (STUDY DURATION: 104 WK), Route [Inhibitor]: ORAL, Species: RAT, Strain/Sex: F344/MALE, Target Tissue: Type of Lesion: LUNG: ADENOMA, Dose [Carcinogen]: 1.76 MG/KG 3/WK FOR 20 WK): 8/40 (20%), 5/40 (13%), 35%, not calculated
tumour outcome (control, treated, inhibition, significance) (3 UMOL/G DIET FOR 21 WK BEGINNING 1 WK PRIOR TO FIRST CARCINOGEN DOSE (STUDY DURATION: 104 WK), Route [Inhibitor]: ORAL, Species: RAT, Strain/Sex: F344/MALE, Target Tissue: Type of Lesion: LUNG: CARCINOMA, Dose [Carcinogen]: 1.76 MG/KG 3/WK FOR 20 WK): 24/40 (60%), 12/40 (30%), 50%, not calculated
tumour outcome (control, treated, inhibition, significance) (3 UMOL/G DIET FOR 21 WK BEGINNING 1 WK PRIOR TO FIRST CARCINOGEN DOSE (STUDY DURATION: 104 WK), Route [Inhibitor]: ORAL, Species: RAT, Strain/Sex: F344/MALE, Target Tissue: Type of Lesion: NASAL CAVITY: BENIGN TUMOR, Dose [Carcinogen]: 1.76 MG/KG 3/WK FOR 20 WK): 8/40 (20%), 6/40 (15%), 25%, not calculated
tumour outcome (control, treated, inhibition, significance) (3 UMOL/G DIET FOR 21 WK BEGINNING 1 WK PRIOR TO FIRST CARCINOGEN DOSE (STUDY DURATION: 104 WK), Route [Inhibitor]: ORAL, Species: RAT, Strain/Sex: F344/MALE, Target Tissue: Type of Lesion: NASAL CAVITY: SQUAMOUS CELL CARCINOMA, Dose [Carcinogen]: 1.76 MG/KG 3/WK FOR 20 WK): 3/40 (8%), 7/40 (3%), 63%, not calculated
tumour outcome (control, treated, inhibition, significance) (3 UMOL/G OF DIET FOR 112 WK BEGINNING 1 WK PRIOR TO CARCINOGEN TREATMENT (STUDY DURATION: 112 WK), Route [Inhibitor]: ORAL, Species: RAT, Strain/Sex: F344/MALE, Target Tissue: Type of Lesion: HEMATOPOIETIC SYSTEM: LEUKEMIA OR LYMPHOMA, Dose [Carcinogen]: 2 PPM IN DRINKING WATER FOR 111 WK): 26/56 (46%), 28/59 (47%), -2%, not significant
tumour outcome (control, treated, inhibition, significance) (3 UMOL/G OF DIET FOR 112 WK BEGINNING 1 WK PRIOR TO CARCINOGEN TREATMENT (STUDY DURATION: 112 WK), Route [Inhibitor]: ORAL, Species: RAT, Strain/Sex: F344/MALE, Target Tissue: Type of Lesion: LIVER: ADENOMA OR CARCINOMA, Dose [Carcinogen]: 2 PPM IN DRINKING WATER FOR 111 WK): 5/55 (9%), 2/56 (4%), 56%, not significant
tumour outcome (control, treated, inhibition, significance) (3 UMOL/G OF DIET FOR 112 WK BEGINNING 1 WK PRIOR TO CARCINOGEN TREATMENT (STUDY DURATION: 112 WK), Route [Inhibitor]: ORAL, Species: RAT, Strain/Sex: F344/MALE, Target Tissue: Type of Lesion: LUNG: ADENOCARCINOMA, Dose [Carcinogen]: 2 PPM IN DRINKING WATER FOR 111 WK): 23/56 (41%), 1/59 (2%), 95%, p=0.00001
tumour outcome (control, treated, inhibition, significance) (3 UMOL/G OF DIET FOR 112 WK BEGINNING 1 WK PRIOR TO CARCINOGEN TREATMENT (STUDY DURATION: 112 WK), Route [Inhibitor]: ORAL, Species: RAT, Strain/Sex: F344/MALE, Target Tissue: Type of Lesion: LUNG: ADENOMA, Dose [Carcinogen]: 2 PPM IN DRINKING WATER FOR 111 WK): 16/56 (29%), 2/59 (3%), 90%, p=0.0002
tumour outcome (control, treated, inhibition, significance) (3 UMOL/G OF DIET FOR 112 WK BEGINNING 1 WK PRIOR TO CARCINOGEN TREATMENT (STUDY DURATION: 112 WK), Route [Inhibitor]: ORAL, Species: RAT, Strain/Sex: F344/MALE, Target Tissue: Type of Lesion: NASAL CAVITY: PAPILLOMA OR CARCINOMA, Dose [Carcinogen]: 2 PPM IN DRINKING WATER FOR 111 WK): 1/48 (2%), 0/53 (0%), 100%, not significant
tumour outcome (control, treated, inhibition, significance) (3 UMOL/G OF DIET FOR 112 WK BEGINNING 1 WK PRIOR TO CARCINOGEN TREATMENT (STUDY DURATION: 112 WK), Route [Inhibitor]: ORAL, Species: RAT, Strain/Sex: F344/MALE, Target Tissue: Type of Lesion: PANCREAS (ENDOCRINE): BENIGN TUMOR, Dose [Carcinogen]: 2 PPM IN DRINKING WATER FOR 111 WK): 5/52 (10%), 7/59 (12%), -20%, not significant
tumour outcome (control, treated, inhibition, significance) (3 UMOL/G OF DIET FOR 112 WK BEGINNING 1 WK PRIOR TO CARCINOGEN TREATMENT (STUDY DURATION: 112 WK), Route [Inhibitor]: ORAL, Species: RAT, Strain/Sex: F344/MALE, Target Tissue: Type of Lesion: PANCREAS (EXOCRINE): BENIGN TUMOR, Dose [Carcinogen]: 2 PPM IN DRINKING WATER FOR 111 WK): 1/52 (2%), 8/59 (14%), -600%, p=0.025
